In patent US11098044B2, “Imidazopyridinyl compounds and use thereof for treatment of neurodegenerative disorders” (1ST Biotherapeutics, Inc., priority 2019, dated 2021):

Assays:
Assay type in all cases: biochemical
[1] = biological target: LRRK2 (WT) (Homo sapiens (Human), UniProt Q5S007); assay: LRRK2 Kinase Assay (Adapta); details: 70 μM ATP, LRRKtide substrate
Method: (§1) The LRRK2 and LRRK2 G2019S kinase assays were performed using the Adapta™ technology in ThermoFisher Scientific. This experiment was carried out according to the supplier's protocol. Briefly, assay conditions were as follows. The mixture of substrate (LRRKtide) and each kinase was prepared in 50 mM Tris pH 8.5, 0.01% BRIJ-35, 10 mM MgCl2, 1 mM EGTA, 0.02% NaN3. Assays were performed in the presence of 70 μM ATP and 100 μM ATP (KmATP) in LRRK2 and LRRK2 G2019S, respectively. The reaction was progressed at room temperature for 1 hour. Upon completion of kinase reaction, 5 μL of Detection Mix was added and after 60 min incubation time, the emission ratio of 665/615 nm was calculated.

[2] = biological target: LRRK2 G2019S (Homo sapiens (Human), UniProt Q5S007, G2019S); assay: LRRK2 G2019S Kinase Assay (Adapta); details: 100 μM ATP, LRRKtide substrate; read-out: LRRK2_G2019S IC50
Method: as §1

[3] = biological target: c-Abl (His-tagged recombinant human ABL1) (Homo sapiens (Human), UniProt P00519); assay: c-abl Kinase Assay (ADP-Glo); details: ATP (25 μM), Abltide substrate
Method: ADP-Glo assay kit was purchased from Promega. Magnesium chloride (MgCl2), bovine serum albumin (BSA), ethylene glycol-bis(p-aminoethyl ether)-N,N,N′,N′-tetraacetic acid (EGTA), triton X-100, 1,4-dithiothreitol (DTT) and dimethyl sulfoxide (DMSO) were purchased from Sigma-Aldrich. HEPES buffer was purchased from Gibco. ABL1 kinase and Abltide were purchased from Signalchem.
c-Abl kinase activity was measured by Promega's ADP-Glo™ Assay. In this assay, His-tagged recombinant human ABL1 (0.25 ng/μl) is incubated with 5 μL of compounds (0.5% DMSO), 5 μL of Abltide (0.01 μg/μl) and 5 μL of ATP (25 μM) in buffer (50 mM HEPES, 7.5; 10 mM MgCl2; 1 mM EGTA; 0.05% BSA; 0.01% Triton X-100; 2 mM DTT). The assay was started by incubating the reaction mixture in a 96-well plate at 30° C. for 30-min. After the incubation, 25 μL ADP-Glo reagent was added and the reaction was incubated at room temperature for 40-min to stop the reaction and degrade residual ATP. The ADP product was then converted to ATP by adding 50 μL per well of detection reagent. Luminescence was detected after 30-min room temperature incubation with the Molecular device I3X plate reader. The IC50 values were calculated from a series of percent inhibition values determined at a range of inhibitor concentration using software routines as implemented in the GraphPad Prism 7 software and Sigma Plot 13.0.

LRRK2 G2019S, sequence (Q5S007 whole entry G2019S): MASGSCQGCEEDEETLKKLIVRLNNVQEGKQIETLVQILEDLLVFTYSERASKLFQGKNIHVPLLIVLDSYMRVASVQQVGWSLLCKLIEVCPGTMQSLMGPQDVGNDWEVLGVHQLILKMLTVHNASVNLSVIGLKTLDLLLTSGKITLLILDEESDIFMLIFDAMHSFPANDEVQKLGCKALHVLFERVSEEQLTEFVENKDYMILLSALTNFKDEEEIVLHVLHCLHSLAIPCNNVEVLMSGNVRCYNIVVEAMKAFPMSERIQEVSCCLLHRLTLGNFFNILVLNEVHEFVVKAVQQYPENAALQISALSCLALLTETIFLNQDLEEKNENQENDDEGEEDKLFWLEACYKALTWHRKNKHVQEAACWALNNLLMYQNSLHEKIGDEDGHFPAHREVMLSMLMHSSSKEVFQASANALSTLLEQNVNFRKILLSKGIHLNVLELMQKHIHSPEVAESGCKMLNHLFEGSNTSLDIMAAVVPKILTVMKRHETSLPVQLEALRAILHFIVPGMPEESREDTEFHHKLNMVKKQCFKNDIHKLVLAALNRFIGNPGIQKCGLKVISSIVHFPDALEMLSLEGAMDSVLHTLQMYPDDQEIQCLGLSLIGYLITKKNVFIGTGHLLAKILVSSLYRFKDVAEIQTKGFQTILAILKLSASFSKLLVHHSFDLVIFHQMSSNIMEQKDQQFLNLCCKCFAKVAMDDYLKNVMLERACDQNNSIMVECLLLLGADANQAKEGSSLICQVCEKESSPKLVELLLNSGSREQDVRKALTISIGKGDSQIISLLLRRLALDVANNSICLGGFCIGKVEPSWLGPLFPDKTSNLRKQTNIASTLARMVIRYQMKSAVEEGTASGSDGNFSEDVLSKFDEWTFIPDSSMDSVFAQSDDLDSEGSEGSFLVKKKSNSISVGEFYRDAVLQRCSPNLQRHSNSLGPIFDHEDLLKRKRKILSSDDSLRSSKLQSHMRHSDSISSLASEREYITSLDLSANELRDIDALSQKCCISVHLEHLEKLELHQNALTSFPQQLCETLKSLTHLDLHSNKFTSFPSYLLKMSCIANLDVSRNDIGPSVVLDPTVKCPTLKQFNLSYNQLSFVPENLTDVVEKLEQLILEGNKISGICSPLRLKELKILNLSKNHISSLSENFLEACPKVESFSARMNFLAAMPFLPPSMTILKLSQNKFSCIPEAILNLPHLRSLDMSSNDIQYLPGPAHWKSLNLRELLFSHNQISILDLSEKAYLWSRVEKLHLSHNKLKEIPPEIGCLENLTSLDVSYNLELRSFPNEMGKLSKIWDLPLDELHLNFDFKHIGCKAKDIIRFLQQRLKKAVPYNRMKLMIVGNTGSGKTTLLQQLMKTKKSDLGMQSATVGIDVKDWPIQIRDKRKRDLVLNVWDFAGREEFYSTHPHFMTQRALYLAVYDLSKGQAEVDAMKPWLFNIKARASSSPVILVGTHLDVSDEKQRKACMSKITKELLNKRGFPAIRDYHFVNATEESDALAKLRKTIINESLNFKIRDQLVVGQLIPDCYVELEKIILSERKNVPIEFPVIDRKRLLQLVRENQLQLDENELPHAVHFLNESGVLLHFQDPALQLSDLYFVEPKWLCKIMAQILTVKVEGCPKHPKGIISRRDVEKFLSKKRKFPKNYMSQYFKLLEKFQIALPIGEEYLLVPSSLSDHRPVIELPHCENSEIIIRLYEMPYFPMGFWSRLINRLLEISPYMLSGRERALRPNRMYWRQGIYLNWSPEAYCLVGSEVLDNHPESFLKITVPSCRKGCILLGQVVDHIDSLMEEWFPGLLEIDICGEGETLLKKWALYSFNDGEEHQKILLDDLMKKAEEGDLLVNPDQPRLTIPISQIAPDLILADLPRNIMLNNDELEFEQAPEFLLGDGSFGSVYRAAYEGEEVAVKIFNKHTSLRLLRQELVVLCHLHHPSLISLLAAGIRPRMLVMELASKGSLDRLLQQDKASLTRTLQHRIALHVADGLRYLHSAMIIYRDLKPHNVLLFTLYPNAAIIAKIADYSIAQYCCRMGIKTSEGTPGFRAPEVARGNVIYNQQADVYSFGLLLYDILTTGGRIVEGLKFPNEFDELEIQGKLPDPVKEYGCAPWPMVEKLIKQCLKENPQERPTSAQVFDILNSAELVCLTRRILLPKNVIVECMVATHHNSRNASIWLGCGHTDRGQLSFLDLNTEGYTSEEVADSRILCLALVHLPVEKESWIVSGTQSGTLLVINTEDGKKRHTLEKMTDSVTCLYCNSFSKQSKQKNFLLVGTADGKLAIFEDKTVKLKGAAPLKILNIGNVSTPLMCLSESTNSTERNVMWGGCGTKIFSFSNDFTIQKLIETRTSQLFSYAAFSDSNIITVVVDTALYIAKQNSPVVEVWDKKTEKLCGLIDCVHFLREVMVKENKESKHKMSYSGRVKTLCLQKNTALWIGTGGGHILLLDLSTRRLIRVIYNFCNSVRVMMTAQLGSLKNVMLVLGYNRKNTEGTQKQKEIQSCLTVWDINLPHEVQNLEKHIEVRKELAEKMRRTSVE
LRRK2 (WT), sequence (Q5S007 whole entry): as the sequence (Q5S007 whole entry G2019S) above, with S2019G counted along it
c-Abl (His-tagged recombinant human ABL1), sequence (P00519 whole entry): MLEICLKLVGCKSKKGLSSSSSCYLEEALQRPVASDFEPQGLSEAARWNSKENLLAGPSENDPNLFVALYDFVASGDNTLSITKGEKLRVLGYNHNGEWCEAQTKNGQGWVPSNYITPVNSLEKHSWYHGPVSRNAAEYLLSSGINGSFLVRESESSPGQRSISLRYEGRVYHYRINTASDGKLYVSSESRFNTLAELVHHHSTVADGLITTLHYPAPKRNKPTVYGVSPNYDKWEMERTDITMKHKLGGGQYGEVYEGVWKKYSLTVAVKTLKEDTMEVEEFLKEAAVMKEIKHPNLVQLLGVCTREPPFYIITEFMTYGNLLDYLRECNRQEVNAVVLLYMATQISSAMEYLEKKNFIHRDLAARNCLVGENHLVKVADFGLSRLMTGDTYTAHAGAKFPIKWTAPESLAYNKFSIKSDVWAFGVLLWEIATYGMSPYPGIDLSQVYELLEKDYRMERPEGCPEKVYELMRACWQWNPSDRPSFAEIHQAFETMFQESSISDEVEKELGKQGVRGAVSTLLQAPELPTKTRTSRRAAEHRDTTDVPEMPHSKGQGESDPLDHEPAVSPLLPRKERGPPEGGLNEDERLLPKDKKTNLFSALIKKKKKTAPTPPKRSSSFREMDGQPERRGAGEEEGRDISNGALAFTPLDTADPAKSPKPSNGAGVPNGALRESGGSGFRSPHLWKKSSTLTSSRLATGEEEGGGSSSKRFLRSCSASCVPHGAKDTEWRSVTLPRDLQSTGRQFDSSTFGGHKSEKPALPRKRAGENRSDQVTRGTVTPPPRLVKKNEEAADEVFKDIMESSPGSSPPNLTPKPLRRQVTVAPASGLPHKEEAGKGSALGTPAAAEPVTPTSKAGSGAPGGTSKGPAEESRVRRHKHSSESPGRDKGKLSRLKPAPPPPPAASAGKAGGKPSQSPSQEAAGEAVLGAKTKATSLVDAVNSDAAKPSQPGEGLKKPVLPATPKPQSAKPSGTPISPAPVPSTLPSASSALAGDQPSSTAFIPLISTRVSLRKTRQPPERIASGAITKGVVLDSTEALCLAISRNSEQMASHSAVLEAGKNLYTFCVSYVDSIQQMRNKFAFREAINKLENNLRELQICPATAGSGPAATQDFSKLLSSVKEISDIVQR

IC50 [1] [nM]	IC50 [2] [nM]	IC50 [3] [nM]	Compound
> 1000	> 1000	> 1000	CC(C)NCc1c(F)cccc1-c1ccc2nc(NC(=O)[C@@H]3C[C@@H]3F)cn2c1 [Example 81, (1S,2S)-2-fluoro-N-(6-(3-fluoro-2-((isopropylamino)methyl)phenyl)imidazo[1,2-a]pyridin-2-yl)cyclopropanecarboxamide]
10 to 100	10 to 100	10 to 100	N#Cc1c(F)cccc1-c1ccc2nc(NC(=O)[C@@H]3C[C@@H]3F)cn2c1 [Example 60, (1S,2S)—N-(6-(2-cyano-3-fluorophenyl)imidazo[1,2-a]pyridin-2-yl)-2-fluorocyclopropanecarboxamide]
> 1000	> 1000	> 1000	NCc1c(F)cccc1-c1ccc2nc(NC(=O)[C@@H]3C[C@@H]3F)cn2c1 [Example 74, (1S,2S)—N-(6-(2-(aminomethyl)-3-fluorophenyl)imidazo[1,2-a]pyridin-2-yl)-2-fluorocyclopropanecarboxamide]
10 to 100	10 to 100	< 10	Cc1ccsc1-c1ccc2nc(NC(=O)[C@@H]3C[C@@H]3F)cn2c1 [Example 41, (1S,2S)-2-fluoro-N-(6-(3-methylthiophen-2-yl)imidazo[1,2-a]pyridin-2-yl)cyclopropane-1-carboxamide]
101 to 1000	10 to 100	< 10	Cc1ccc(-c2cc[nH]c2)cc1-c1ccc2nc(NC(=O)[C@@H]3C[C@@H]3F)cn2c1 [Example 40, (1S,2S)-2-fluoro-N-(6-(2-methyl-5-(1H-pyrrol-3-yl)phenyl)imidazo[1,2-a]pyridin-2-yl)cyclopropane-1-carboxamide]
> 1000	> 1000	< 10	Cc1cc(N)ncc1-c1ccc2nc(NC(=O)[C@@H]3C[C@@H]3F)cn2c1 [Example 49, (1S,2S)—N-(6-(6-amino-4-methylpyridin-3-yl)imidazo[1,2-a]pyridin-2-yl)-2-fluorocyclopropane-1-carboxamide]
> 1000	> 1000	10 to 100	O=C(Nc1cn2cc(-c3cccc(F)c3-c3ccco3)ccc2n1)[C@@H]1C[C@@H]1F [Example 65, (1S,2S)-2-fluoro-N-(6-(3-fluoro-2-(furan-2-yl)phenyl)imidazo[1,2-a]pyridin-2-yl)cyclopropanecarboxamide]
101 to 1000	10 to 100	< 10	Cc1ccc2[nH]cc(C)c2c1-c1ccc2nc(NC(=O)[C@@H]3C[C@@H]3F)cn2c1 [Example 63, (1S,2S)—N-(6-(3,5-dimethyl-1H-indol-4-yl)imidazo[1,2-a]pyridin-2-yl)-2-fluorocyclopropanecarboxamide]
> 1000	> 1000	101 to 1000	Cc1cc(N(C)C)ncc1-c1ccc2nc(NC(=O)[C@@H]3C[C@@H]3F)cn2c1 [Example 69, (1S,2S)—N-(6-(6-(dimethylamino)-4-methylpyridin-3-yl)imidazo[1,2-a]pyridin-2-yl)-2-fluorocyclopropanecarboxamide]
101 to 1000	10 to 100	10 to 100	Cc1ccnc(F)c1-c1ccc2nc(NC(=O)[C@@H]3C[C@@H]3F)cn2c1 [Example 47, (1S,2S)-2-fluoro-N-(6-(2-fluoro-4-methylpyridin-3-yl)imidazo[1,2-a]pyridin-2-yl)cyclopropane-1-carboxamide]
> 1000	101 to 1000	101 to 1000	N#Cc1ccncc1-c1ccc2nc(NC(=O)[C@@H]3C[C@@H]3F)cn2c1 [Example 36, (1S,2S)—N-(6-(4-cyanopyridin-3-yl)imidazo[1,2-a]pyridin-2-yl)-2-fluorocyclopropane-1-carboxamide]
101 to 1000	101 to 1000	< 10	Cc1ccc(-c2ccc3nc(NC(=O)[C@@H]4C[C@@H]4F)cn3c2)c(C)c1 [Example 32, (1S,2S)—N-(6-(2,4-dimethylphenyl)imidazo[1,2-a]pyridin-2-yl)-2-fluorocyclopropane-1-carboxamide]
101 to 1000	101 to 1000	< 10	Cc1c(F)ccc(-c2ccc3nc(NC(=O)[C@@H]4C[C@@H]4F)cn3c2)c1C [Example 37, (1S,2S)-2-fluoro-N-(6-(4-fluoro-2,3-dimethylphenyl)imidazo[1,2-a]pyridin-2-yl)cyclopropane-1-carboxamide]
> 1000	> 1000	< 10	O=C(Nc1cn2cc(-c3cccc(F)c3CO)ccc2n1)[C@@H]1C[C@@H]1F [Example 57, (1S,2S)-2-fluoro-N-(6-(3-fluoro-2-(hydroxymethyl)phenyl)imidazo[1,2-a]pyridin-2-yl)cyclopropane-1-carboxamide]

The next lines start with the molecule.

Compound	IC50 [1] [nM]	IC50 [2] [nM]	IC50 [3] [nM]
Cc1ccncc1-c1ccc2nc(NC(=O)[C@@H]3C[C@@H]3F)c(Cl)n2c1 [Example 7, (1S,2S)—N-(3-chloro-6-(4-methylpyridin-3-yl)imidazo[1,2-a]pyridin-2-yl)-2-fluorocyclopropane-1-carboxamide]	> 1000	> 1000	101 to 1000
Cc1c(O)cccc1-c1ccc2nc(NC(=O)[C@@H]3C[C@@H]3F)cn2c1 [Example 20, (1S,2S)-2-fluoro-N-(6-(3-hydroxy-2-methylphenyl)imidazo[1,2-a]pyridin-2-yl)cyclopropane-1-carboxamide]	< 10	10 to 100	< 10
Cc1cccc(F)c1-c1ccc2nc(NC(=O)[C@@H]3C[C@@H]3F)c(C)n2c1 [Example 9, (1S,2S)-2-fluoro-N-(6-(2-fluoro-6-methylphenyl)-3-methylimidazo[1,2-a]pyridin-2-yl)cyclopropane-1-carboxamide]	101 to 1000	101 to 1000	10 to 100
O=C(Nc1cn2cc(-c3cnccc3C(F)(F)F)ccc2n1)[C@@H]1C[C@@H]1F [Example 31, (1S,2S)-2-fluoro-N-(6-(4-(trifluoromethyl)pyridin-3-yl)imidazo[1,2-a]pyridin-2-yl)cyclopropane-1-carboxamide]	> 1000	101 to 1000	101 to 1000
Cc1ccc(Cl)cc1-c1ccc2nc(NC(=O)[C@@H]3C[C@@H]3F)cn2c1 [Example 26, (1S,2S)—N-(6-(5-chloro-2-methylphenyl)imidazo[1,2-a]pyridin-2-yl)-2-fluorocyclopropane-1-carboxamide]	101 to 1000	101 to 1000	< 10
COC(=O)c1ccc(C)c(-c2ccc3nc(NC(=O)[C@@H]4C[C@@H]4F)cn3c2)c1 [Example 13, methyl 3-(2-((1S,2S)-2-fluorocyclopropane-1-carboxamido)imidazo[1,2-a]pyridin-6-yl)-4-methylbenzoate]	> 1000	> 1000	< 10
O=C(Nc1cn2cc(-c3cnc4[nH]ccc4c3)ccc2n1)[C@@H]1C[C@@H]1F [Example 27, (1S,2S)—N-(6-(1H-pyrrolo[2,3-b]pyridin-5-yl)imidazo[1,2-a]pyridin-2-yl)-2-fluorocyclopropane-1-carboxamide]	101 to 1000	10 to 100	< 10
Cc1ccncc1-c1ccc2nc(NC(=O)[C@@H]3C[C@@H]3F)cn2c1 [Example 6, (1S,2S)-2-fluoro-N-(6-(4-methylpyridin-3-yl)imidazo[1,2-a]pyridin-2-yl)cyclopropane-1-carboxamide]	101 to 1000	101 to 1000	10 to 100
Cc1cccc(F)c1-c1ccc2nc(NC(=O)[C@@H]3C[C@@H]3F)cn2c1 [Example 2, (1S,2S)-2-fluoro-N-(6-(2-fluoro-6-methylphenyl)imidazo[1,2-a]pyridin-2-yl)cyclopropane-1-carboxamide]	101 to 1000	10 to 100	< 10
O=C(Nc1cn2cc(-c3cc[nH]n3)ccc2n1)[C@@H]1C[C@@H]1F [Example 18, (1S,2S)—N-(6-(1H-pyrazol-3-yl)imidazo[1,2-a]pyridin-2-yl)-2-fluorocyclopropane-1-carboxamide]	101 to 1000	101 to 1000	101 to 1000
O=C(Nc1cn2cc(-c3cnccc3Cl)ccc2n1)[C@@H]1C[C@@H]1F [Example 21, (1S,2S)—N-(6-(4-chloropyridin-3-yl)imidazo[1,2-a]pyridin-2-yl)-2-fluorocyclopropane-1-carboxamide]	101 to 1000	101 to 1000	10 to 100
